# Structures can show the parent of a compound that is named as a salt.
# Key:
# [1] = molecular target: T1, NHE3 (Homo sapiens, UniProt P48764); assay: Cell-based assay of NHE-3 activity (pre-incubation inhibition), human; settings: human Preincubation; for pIC50 / IC50: 0-30 μM test compound
# T1 construct: expressed in transfected cells
# T1 sequence (P48764 26-834): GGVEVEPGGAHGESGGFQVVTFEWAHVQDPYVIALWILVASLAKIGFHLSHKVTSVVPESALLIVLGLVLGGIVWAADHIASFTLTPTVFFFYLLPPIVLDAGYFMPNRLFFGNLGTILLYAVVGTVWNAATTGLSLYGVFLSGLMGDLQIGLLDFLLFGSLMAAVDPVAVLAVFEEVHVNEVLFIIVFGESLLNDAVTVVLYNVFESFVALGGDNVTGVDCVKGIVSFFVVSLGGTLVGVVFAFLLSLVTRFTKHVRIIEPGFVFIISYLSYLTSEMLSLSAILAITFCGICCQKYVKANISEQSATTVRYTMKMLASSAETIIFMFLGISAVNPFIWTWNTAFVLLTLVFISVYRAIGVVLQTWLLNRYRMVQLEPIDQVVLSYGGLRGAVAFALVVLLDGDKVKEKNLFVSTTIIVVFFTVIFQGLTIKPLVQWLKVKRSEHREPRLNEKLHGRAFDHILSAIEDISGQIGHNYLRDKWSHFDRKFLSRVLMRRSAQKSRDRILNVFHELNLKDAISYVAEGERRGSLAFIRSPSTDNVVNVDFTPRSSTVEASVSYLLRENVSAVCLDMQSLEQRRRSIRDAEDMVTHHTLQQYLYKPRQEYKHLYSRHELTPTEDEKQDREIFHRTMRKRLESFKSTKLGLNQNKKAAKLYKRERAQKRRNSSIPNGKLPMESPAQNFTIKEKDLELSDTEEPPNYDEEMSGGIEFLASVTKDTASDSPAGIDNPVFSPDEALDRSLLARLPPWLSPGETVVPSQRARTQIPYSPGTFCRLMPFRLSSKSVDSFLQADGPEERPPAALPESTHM
# T1 sequence (Q99653 2-195 partner limits assumed): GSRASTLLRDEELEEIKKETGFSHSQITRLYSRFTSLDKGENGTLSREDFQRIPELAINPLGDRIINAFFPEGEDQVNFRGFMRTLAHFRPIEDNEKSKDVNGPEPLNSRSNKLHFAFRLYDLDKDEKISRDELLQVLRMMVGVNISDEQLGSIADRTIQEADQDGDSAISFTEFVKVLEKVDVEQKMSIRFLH
# Summary of the method: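 PS120 fibroblasts stably expressing human NHE3 and NHERF2, loaded 30 min at 37 °C with 5 μM BCECF-AM in NH4Cl buffer, then acidified 10 min at room temperature in Na+-free buffer with 0–30 μM compound. Initial rate of BCECF fluorescence ratio change (FLIPR) per minute taken as Na+/H+ activity.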
# [2] = molecular target: T1, NHE3; assay: Cell-based assay of NHE-3 activity (persistent inhibition), human; settings: human Persistence, 60 min incubation then washout
# Summary of the method: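 PS120 fibroblasts expressing human NHE3 with NHERF2 exposed to 0-30 μM compound for 60 min at RT, then washed out; cells acid-loaded by NH4Cl prepulse with BCECF-AM and Na+-free buffer. Na+-driven pH recovery started 10 min post-washout; initial rate of BCECF ratio change (FLIPR) taken as activity.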
% inhibition [1],pIC50 [1],% inhibition [2],pIC50 [2],IC50 [1] [nM],IC50 [2] [nM],SMILES
C (>70%),C (NHE3 pIC50 > 7),C (>70%),C (NHE3 pIC50 > 7),,,"CC1(C)O[C@H]2[C@@H](OC(C)(C)O[C@H]2C(=O)NCc2cn(CCCCNS(=O)(=O)c3ccc(O[C@H]4c5cc(Cl)cc(Cl)c5C[C@@H]4N4CCC[C@@H](N)C4)cc3)nn2)[C@@H](C(=O)NCc2cn(CCCCNS(=O)(=O)c3ccc(O[C@H]4c5cc(Cl)cc(Cl)c5C[C@@H]4N4CCC[C@@H](N)C4)cc3)nn2)O1 [Example 60, (4R,4aS,8S,8aR)—N^4,N^8-Bis([1-(4-[4-((1S,2S)-2-[(3R)-3-aminopiperidin-1-yl]-4,6-dichloro-2,3-dihydro-1H-inden-1-yloxy)phenylsulfonamide]butyl)-1H-1,2,3-traizol-4-yl]methyl)-2,2,6,6-tetramethyl-tetrahydro-[1,3]dioxino[5,4-d][1,3]dioxine-4,8-dicarboxamide]"
A (NHE3 < 40%),C (NHE3 pIC50 > 7),C (>70%),A (NHE3 pIC50 < 6),,,"COc1cc(Cl)cc2c1C[C@H](N(C)C)[C@H]2Oc1ccc(S(=O)(=O)NCCOCCOCCNC(=O)NCCCCNC(=O)NCCOCCOCCNS(=O)(=O)c2ccc(O[C@H]3c4cc(Cl)cc(OC)c4C[C@@H]3N(C)C)c(C)c2)cc1C [Example 21, 3-[2-(2-[2-[(4-[[(1S,2S)-6-Chloro-2-(dimethylamino)-4-methoxy-2,3-dihydro-1H-inden-1-yl]oxy]-3-methylbenzene)sulfonamido]ethoxy]ethoxy)ethyl]-1-[4-([[2-(2-[2-[(4-[[(1S,2S)-6-chloro-2-(dimethylamino)-4-methoxy-2,3-dihydro-1H-inden-1-yl]oxy]-3-methylbenzene)sulfonamido]ethoxy]ethoxy)ethyl]carbamoyl]amino)butyl]urea; bis(trifluoroacetic acid)]"
C (>70%),,C (>70%),,< 100,< 100,"N[C@@H]1CCCN([C@H]2Cc3c(Cl)cc(Cl)cc3[C@@H]2Oc2ccc(S(=O)(=O)N3CC[C@@H](OCCOCCNC(=O)NCCCCNC(=O)NCCOCCO[C@@H]4CCN(S(=O)(=O)c5ccc(O[C@H]6c7cc(Cl)cc(Cl)c7C[C@@H]6N6CCC[C@@H](N)C6)cc5)C4)C3)cc2)C1 [Example 93, 3-[2-(2-[[(3R)-1-[(4-[[(1S,2S)-2-[(3R)-3-Aminopiperidin-1-yl]-4,6-dichloro-2,3-dihydro-1H-inden-1-yl]oxy]benzene)sulfonyl]pyrrolidin-3-yl]oxy]ethoxy)ethyl]-1-[4-([[2-(2-[[(3R)-1-[(4-[[(1S,2S)-2-[(3R)-3-aminopiperidin-1-yl]-4,6-dichloro-2,3-dihydro-1H-inden-1-yl]oxy]benzene)sulfonyl]pyrrolidin-3-yl]oxy]ethoxy)ethyl]carbamoyl]amino)butyl]urea]"
C (>70%),,A (NHE3 < 40%),,< 100,< 100,"N#Cc1cc(Cl)cc2c1C[C@H](N1CCCNCC1)[C@H]2Oc1ccc(S(=O)(=O)N[C@@H]2CCN(CCOCCNC(=O)NCCCCNC(=O)NCCOCCN3CC[C@@H](NS(=O)(=O)c4ccc(O[C@H]5c6cc(Cl)cc(C#N)c6C[C@@H]5N5CCCNCC5)cc4)C3)C2)cc1 [Example 127, 4-([(1S,2S)-6-Chloro-4-cyano-2-(1,4-diazepan-1-yl)-2,3-dihydro-1H-inden-1-yl]oxy)-N—[(R)-1-(20-[(R)-3-([4-([(1S,2S)-6-chloro-4-cyano-2-(1,4-diazepan-1-yl)-2,3-dihydro-1H-inden-1-yl]oxy)phenyl]sulfonamido)pyrrolidin-1-yl]-7,14-dioxo-3,18-dioxa-6,8,13,15-tetraazaicosyl)pyrrolidin-3-yl]benzenesulfonamide; bis(trifluoroacetic acid)]"
C (>70%),,B (40-70%),,< 100,< 100,"Cc1cc(S(=O)(=O)N[C@H]2CCN(CCOCCNC(=O)NCCCCNC(=O)NCCOCCN3CC[C@H](NS(=O)(=O)c4ccc(O[C@H]5c6cc(Cl)cc(C#N)c6C[C@@H]5N(C)C)c(C)c4)C3)C2)ccc1O[C@H]1c2cc(Cl)cc(C#N)c2C[C@@H]1N(C)C [Example 54, 3-(2-[2-[(3S)-3-[(4-[[(1S,2S)-6-Chloro-4-cyano-2-(dimethylamino)-2,3-dihydro-1H-inden-1-yl]oxy]-3-methylbenzene)sulfonamido]pyrrolidin-1-yl]ethoxy]ethyl)-1-(4-[[(2-[2-[(3S)-3-[(4-[[(1S,2S)-6-chloro-4-cyano-2-(dimethylamino)-2,3-dihydro-1H-inden-1-yl]oxy]-3-methylbenzene)sulfonamido]pyrrolidin-1-yl]ethoxy]ethyl)carbamoyl]amino]butyl)urea]"
C (>70%),A (NHE3 pIC50 < 6),A (NHE3 < 40%),A (NHE3 pIC50 < 6),,,"CC(=O)N1CCN([C@H]2Cc3c(Cl)cc(Cl)cc3[C@@H]2Oc2ccc(S(=O)(=O)NCCOCCOCCNC(=O)NCCCCNC(=O)NCCOCCOCCNS(=O)(=O)c3ccc(O[C@H]4c5cc(Cl)cc(Cl)c5C[C@@H]4N4CCN(C(C)=O)CC4)cc3)cc2)CC1 [Example 74, 3-[2-(2-[2-[(4-[[(1S,2S)-2-(4-Acetylpiperazin-1-yl)-4,6-dichloro-2,3-dihydro-1H-inden-1-yl]oxy]benzene)sulfonamido]ethoxy]ethoxy)ethyl]-1-[4-([[2-(2-[2-[(4-[[(1S,2S)-2-(4-acetylpiperazin-1-yl)-4,6-dichloro-2,3-dihydro-1H-inden-1-yl]oxy]benzene)sulfonamido]ethoxy]ethoxy)ethyl]carbamoyl]amino)butyl]urea]"
C (>70%),C (NHE3 pIC50 > 7),C (>70%),C (NHE3 pIC50 > 7),,,"Cc1cc(S(=O)(=O)N[C@H]2CCN(CCOCCNC(=O)NCCCCNC(=O)NCCOCCN3CC[C@H](NS(=O)(=O)c4ccc(O[C@H]5c6cc(Cl)cc(C#N)c6C[C@@H]5N(C)C)c(C)c4)C3=O)C2=O)ccc1O[C@H]1c2cc(Cl)cc(C#N)c2C[C@@H]1N(C)C [Example 92, 1-(2-[2-[(3S)-3-[(4-[[(1S,2S)-6-Chloro-4-cyano-2-(dimethylamino)-2,3-dihydro-1H-inden-1-yl]oxy]-3-methylbenzene)sulfonamido]-2-oxopyrrolidin-1-yl]ethoxy]ethyl)-3-(4-[[(2-[2-[(3S)-3-[(4-[[(1S,2S)-6-chloro-4-cyano-2-(dimethylamino)-2,3-dihydro-1H-inden-1-yl]oxy]-3-methylbenzene)sulfonamido]-2-oxopyrrolidin-1-yl]ethoxy]ethyl)carbamoyl]amino]butyl)urea; bis(trifluoroacetic acid)]"
C (>70%),C (NHE3 pIC50 > 7),C (>70%),C (NHE3 pIC50 > 7),,,"CC(C)(COCCOCCNC(=O)NCCCCNC(=O)NCCOCCOCC(C)(C)NS(=O)(=O)c1ccc(O[C@H]2c3cc(Cl)cc(Cl)c3C[C@@H]2N2CCC[C@@H](N)C2)cc1)NS(=O)(=O)c1ccc(O[C@H]2c3cc(Cl)cc(Cl)c3C[C@@H]2N2CCC[C@@H](N)C2)cc1 [Example 100, 1-[2-(2-[2-[(4-[[(1S,2S)-2-[(3R)-3-Aminopiperidin-1-yl]-4,6-dichloro-2,3-dihydro-1H-inden-1 yl]oxy]benzene)sulfonamido]-2-methylpropoxy]ethoxy)ethyl]-3-[4-([[2-(2-[2-[(4-[[(1S,2S)-2-[(3R)-3-aminopiperidin-1-yl]-4,6-dichloro-2,3-dihydro-1H-inden-1-yl]oxy]benzene)sulfonamido]-2-methylpropoxy]ethoxy)ethyl]carbamoyl]amino)butyl]urea; hydrochloride]"

# Source: patent publication US11242337B2, “Compounds useful for treating gastrointestinal tract disorders” (Ardelyx, Inc., priority 2017, dated 2022)
